Measured values: patent publication USRE37770E1, “Treatment of skin conditions by use of PPARα activators” (The Regents of the University of California, priority 1997, dated 2002)

Key:
[1] = tested on: Skin explants from gestational day 17 rats; assay: Light and electron microscopy of fetal rat skin explants (epidermal maturation); assay type: cell-based
Protocol: Samples for light microscopy were fixed in modified Karnovsky's solution, plastic-embedded, and 0.5 μm sections were stained with toluidine. Samples for electron microscopy were minced into 1 mm^3 pieces, fixed in modified Karnovsky's fixative, and processed. Sections were stained with uranyl acetate and lead citrate, post-fixed in ruthenium tetroxide, and examined using a Zeiss 10A electron microscope.
Explants incubated in various media woe examined by light microscopy. The incubation di included control medium (containing no activators) and various media individually containing 300 μM clofibrate, 100 μM juvenile hormone III, 300 μM oleic acid, 30 μM linoleic acid, 50 μM farnesol, and various concentrations of 9-cis-retinoic acid, all-trans-retinoic acid, and 1,25-dihydroxy vitamin D3.
Observations were then made of the ultrastructural maturation of the outer epidermis in explants that had been incubated in the various media and then post-fixed in ruthenium tetroxide. Media identical to those of the preceding paragraph were used, excluding the retinoic acid-containing and 1,25-dihydroxy vitamin D3-containing media.

[2] = tested on: fetal rodent skin; details: earlier studies (Hanley et al. 1996); cited from earlier work
[3] = tested on: full-thickness flank skin from the fetal rats; assay: Transepidermal water loss (TEWL) of fetal rat skin explants in organ culture (barrier function); assay type: cell-based, Sprague-Dawley rats
Protocol: Timed pregnant Sprague-Dawley rats (plug date=day 0) were obtained from Simonsen (Gilroy, Calif., USA) and fetuses were delivered prematurely on day 17. Transepidermal water loss (TEWL) was measured in excised full-thickness flank skin from the fetal rats after various times in culture. The skin explants were placed dermis-side down onto collagen membrane inserts (3μ pore size) in medium M-199 (serum-free), and submerged, and the lateral edges and dermal surface were sealed with petrolatum, such that water loss occurred only through the epidermal surface. Explant samples were weighed hourly, at ambient temperature (24±3° C.) and humidity (40±5%), over 6 hours using a Cahn balance (sensitivity 0.001 mg). TEWL levels are reported as milligrams of water lost per square millimeter of epidermal surface per hour. Fatty acids and clofibrate (p-chlorophenoxyisobutyric acid) were added to the medium bound to 0.5% (weight/volume) bovine serum albumin (BSA). Isoprenoids and oxysterols were added in ethanol (≦0.1%) and juvenile hormone III was added as a dimethylsulfoxide (DMSO) solution (≦0.1%). Control explants were incubated in the presence of the appropriate vehicle (≦0.1% DMSO or ethanol, and/or ≦0.5% BSA). Skin explants from gestational day 17 rats were incubated in the presence of either various activators or vehicle, and transepidermal water loss was measured after two days. The activators and the concentrations at which they were used were as follows: […]

[4] = tested on: β-Glucocerebrosidase; assay: β-Glucocerebrosidase activity in epidermis of treated fetal rat skin explants; assay type: cell-based, rats; details: clofibrate (300 μM), juvenile hormone III (100 μ), mean of five ± SEM
Protocol: (§1) Epidermis was separated from dermis after incubation in 10 mM ethylenediamine tetraacetic acid (EDTA) in Ca^++- and Mg^++-free phosphate-buffered saline (PBS), pH 7.4, at 37° C. for 30-40 minutes. The tissues were then minced, and homogenized on ice (three times at 15 seconds each with a Polytron homogenizer, followed by sonication twice at ten seconds each at 35% power) in either PBS containing 0.1 mM phenylmethylsulfonyl fluoride (PMSF) and 0.1% Triton X-100 (for β-glucocerebrosidase) or in 10 mM Tris (PH 7.5) containing 0.15 M sucrose and 2 mM EDTA (for steroid sulfatase). β-Glucocerebrosidase activity was measured in the supernatant following centrifugation at 10,000×g for fifteen minutes at 4° C. Steroid sulfatase activity was measured in the microsomal fraction resulting from a […] centrifugation (10 minutes, 4° C.) followed by 60 minutes of 100,000×g ultracentrifugation at 4° C. Protein content was measured by conventional techniques.
β-Glucocerebrosidase) activity was assayed using the synthetic substrate 4-methylumbelliferyl β-D-glucoside (4-MUG). The assays were performed in 5 mM sodium taurocholate in citrate-phosphate buffer (pH 5.6) with 0.5 mM 4-MUG for sixty minutes at 37° C., with a final assay volume of 100 μL, and protein concentration of 1-2 mg/mL. The reaction was terminated with 2 mL of carbonate-bicarbonate buffer (pH 10.5). The fluorescence was then measured at […] (excitation) and 450 λ (emission) and compared with a standard 4-methylumbelliferone (4-MU) curve.
(§2) Skin explants from 17-day fetal rats were incubated for 24 or 48 hours in media individually containing clofibrate (300 μM) and juvenile hormone III […], and control media. Enzyme activity was measured and the results are presented in Table I as the mean values of five determinations±SEM (standard error of the mean). All p values are ≦0.005 compared with controls of the same time period.

[5] = tested on: Steroid Sulfatase; assay: Steroid sulfatase activity in epidermis of treated fetal rat skin explants; assay type: cell-based, rats; details: clofibrate (300 μM), juvenile hormone III (100 μ), mean of five ± SEM
Protocol: as §1
Steroid sulfatase activity was measured by incubating 100 μg of microsomal protein in 0.1 M Tris containing 5.6 mM glucose (pH 7.4) with 15 μM, (^3H) dihydroepiandrosterone sulfate (DHEAS) (15 μCi) in a final volume of 1.1 mL The product, (^3H) DHEA, was extracted with benzene and an aliquot counted by scintillation spectrophotometry.
as §2

[6] = tested on: Normal human keratinocytes; assay: Cornified envelope formation (35S incorporation) in keratinocytes; assay type: cell-based; details: 15 μM, 0.03 mM calcium, 48-hour

## C=C1/C(=C\C=C2/CCC[C@]3(C)[C@@H]([C@H](C)CCCC(C)(C)O)CC[C@@H]23)C[C@@H](O)C[C@@H]1O [1,25-dihydroxyvitamin D3]
[1]; various concentrations
  light microscopy of the epidermis: did not exhibit a distinct stratum corneum
[2]
  acceleration of the appearance of a mature barrier in fetal rodent skin: had no effect

## CC1=C(/C=C/C(C)=C\C=C\C(C)=C\C(=O)O)C(C)(C)CCC1 [9-cis-retinoic acid]
[1]; various concentrations
  light microscopy of the epidermis: did not exhibit a distinct stratum corneum
[2]
  acceleration of the appearance of a mature barrier in fetal rodent skin: had no effect

## CC1=C(/C=C/C(C)=C/C=C/C(C)=C/C(=O)O)C(C)(C)CCC1 [all-trans-retinoic acid]
[1]; various concentrations
  light microscopy of the epidermis: did not exhibit a distinct stratum corneum
[2]
  acceleration of the appearance of a mature barrier in fetal rodent skin: had no effect

## COC(=O)C=C(C)CCC=C(C)CCC1OC1(C)C (stereo not drawn) [juvenile hormone III, 7-methyl-9-(3,3-dimethyloxiranyl)-3-methyl-2,6-nonadienoic acid methyl ester]
[3]; 100 μM, two days
  effect on TEWL / barrier formation: significantly accelerated barrier formation
[3]; Rattus norvegicus, dose response, FIGS. 4a-4c, read-out: concentration of half-maximal effect on barrier development (TEWL)
  EC50: ~75 µM
[3]; dose response, FIGS. 4a-4c
  concentration of maximal effect on barrier development (TEWL): approximately 250 μM
[1]; 100 μM, 48 hours
  light microscopy of the epidermis: had both a multi-layered stratum granulosum and a stratum corneum
[4]; 24-Hour Incubation
  β-Glucocerebrosidase Activity: 2.89 ± 0.20 nmol/min/mg
[4]; 48-Hour Incubation
  β-Glucocerebrosidase Activity: 5.20 ± 0.62 nmol/min/mg
[5]; 24-Hour Incubation
  Steroid Sulfatase Activity: 12.55 ± 1.25 pmol/h/mg
[5]; 48-Hour Incubation
  Steroid Sulfatase Activity: 18.23 ± 2.35 pmol/h/mg
[6]
  rate of cornified envelope formation: substantial increases in the rate of cornified envelope formation
